Tested on: learning disorder after ischemia
Test: Effect of remedying learning disorder after ischemia (passive avoidance method)
Type: in vivo, Mongolian gerbils
Conditions: p.o.; for Latent time (average ± S.E.): 1 h before 5-min ischemia, upper limit 300 sec, normal 246.5, control 71.5 sec; for Recovery ratio: normal = 100, control = 0
Method: Common carotid arteries on both sides of Mongolian gerbils (17 to 21 weeks old) were clipped with Skoville clamps without anesthesia and the clamps were removed after 5 min to realize a short period of ischemia. Twenty-four hours after the removal of the clamps, these animals were subjected to learning and memory tests were conducted after an additional 24 h. The learning and memory functions were examined by the passive avoidance method with a modification of a device reported by Jarvik and Kopp in "Psychological Reports", 21, 221 to 224 (1967). The device had two chambers, […] chamber A and a dark chamber B. In the tests, the animals were placed in the well-lighted chamber A and an electric current (A.C., 1.6 mA) was applied to a grid on the floor of the dark chamber B for 5 min when they entered the chamber B. On the next day, the animals subjected to the learning were placed in the chamber A and the time (latent time) which had elapsed before they entered the chamber B was measured. The upper limit of the latent time was set at 300 sec. The compound was administered in the form of a 5% suspension in acacia orally one hour before causing the ischemia. A 5% acacia solution was administered to the control group.

Structure (SMILES) | Latent time (average ± S.E.) (3 mg/kg) [s] | Recovery ratio (3 mg/kg) [%] | Latent time (average ± S.E.) (10 mg/kg) [s] | Recovery ratio (10 mg/kg) [%] | Latent time (average ± S.E.) (30 mg/kg) [s] | Recovery ratio (30 mg/kg) [%]
Cl.O=C(CN1CCC(C(=O)c2ccc(F)cc2)CC1)c1ccc2ccccc2c1 [Example 12, 2-[4-(p-Fluorobenzoyl)-1-piperidinyl]-2'-acetonaphthone hydrochloride] | 168.8 ± 23.0 | 56 | 196.8 ± 22.3 | 72 | 196.3 ± 37.0 | 71
c1ccc(CC2CCN(CCc3ccc4ccccc4c3)CC2)cc1 [Example 73] | – | – | 193.1 ± 35.3 | 69 | 80.1 ± 28.2 | 5
O=C(CN1CCC(=Cc2ccc(F)cc2)CC1)c1ccc2ccccc2c1 [Example 74] | 110.2 ± 29.0 | 22 | 123.2 ± 24.3 | 30 | 129.2 ± 23.8 | 33
